The values below come from patent US6759432B2, “Medical use of matrix metalloproteinase inhibitors for inhibiting tissue contraction” (University of Florida Research Foundation, priority 1994, dated 2004).

Usually pKi stands for −log10 of the Ki, conventionally taken in molar units. Low readings indicate a high Ki, high ones a low Ki.

pKi: −log10 of the molar value.

Series [1] has as its system Human ocular fibroblasts (Tendon's capsule fibroblasts). The series can be described thus: Toxicity by tritiated thymidine incorporation (DNA synthesis). Format: cell-based. As to conditions: 80.0, 8.0 and 0.8 μg/ml; 24 hours; medium plus 10% serum and vehicle. Here is the method: The toxicity of the inhibitors was tested by measuring DNA synthesis by tritiated thymidine incorporation. The assay was adapted from a procedure previously described, Woost, P. G. et al 1992.
Human ocular fibroblasts (Tendon's capsule fibroblasts) were cultured in Trimix (DMEM/F-10/M-199) cell culture medium (available from GIBCO/BRL) supplemented with 10% bovine calf serum and grown to confluency in T-75 tissue culture flasks. (That is flasks having a surface area of 75 cm^2.) The cells were split and seeded into 24 well plates at a density of 1×10^4/well in 1.0 ml of medium with 10% bovine calf serum. The cells were incubated for 24-36 hours or until they reached 60-70% confluency. The medium was then changed to serum-free Trimix and the cells were incubated for an additional 24 hours. The cells were then incubated in quadruplicate wells for 24 hours with 1.0 μCi/well ^3H-thymidine in the following conditions: serum-free medium (Trimix), medium plus 10% serum, medium plus 10% serum and vehicle, alone or with the inhibitors. The vehicle was a buffered acetate solution. The solutions comprising medium with 10% serum and vehicle, alone or with inhibitors, were prepared by the method described in Example 1, section (c), above, using Trimix instead of the HEPES buffered DMEM. […] Radioactivity was determined by liquid scintillation counting […] of the solubilized cells. […]
Background: Uptake of a labelled nucleoside into DNA is a usual measure of proliferation.

For series [2], the system named is human ocular fibroblasts. The series can be described thus: Contraction of fibroblast populated collagen gels (lattice area). The class given is cell-based. The note with it: for contraction of gels (mean lattice area): 40 and 4 μg/ml, 7 days, vs hydroxamic acid control. Here is the method: They were then removed from their substratum via a trypsinisation and were pelleted by centrifugation at 3000× g for 8 minutes. The supernatant was then discarded and the cell pellet resuspended in 1.1 ml of newborn calf serum. 100 μl of the suspension was removed and counted in a Coulter counter (Model ZF).
Triplicate gels were made by adding 1.05 ml of the concentrated medium to 1.8 ml of the type 1 collagen solution, mixing rapidly and then adding 0.45 ml of a cell suspension containing 300,000 cells and mixing rapidly.
1 ml aliquots of this gel were then added to petri dishes (area=8 cm^2) and then the dishes were rotated so that the gels were evenly distributed across the bottoms of the dishes. The gels were then incubated at 37° C. in 5% CO2 in air until they had solidified (usually 3 to 5 minutes). An area of the gel was then detached from the edge of each petri dish and 3 ml of normal growth medium solution (control 2), inhibitor test solution or buffer solution (control 1), were added. Each gel was then fully detached from the edges and bottom of the petri dish so that free-floating gels were obtained.
The gels, after solidification, were treated for 24 hours with 3 ml of each of the following test solutions:
The test and control solutions were replaced by 3 ml of the appropriate fresh solution after 24 hours. Photographs of the gel areas were taken on days 1 and 2 and were then digitised. The resulting data were processed by a computer and the gel areas were calculated. Phase-contrast photographs were taken of the top and middle of each gel after 1 and 2 days.
Test solutions were used in approximately 3 ml doses. For all contraction experiments cell morphology was monitored by phase contrast microscopy and the growth medium was changed every 3 to 4 days.
Collagen gels were seeded with either 100,000 or 500,000 cells. […] The gels were monitored for 7 days.
They were exposed to inhibitor and control solutions in the following ways:
The experiment was carried out as for (a) above with 1×10^5 cells per lattice and the test solutions used were BB-94 4 μg/ml, BB-94 0.4 μg/ml and control with vehicle (0.1% vol/vol DMSO). The development of the lattices was followed for seven days after seeding.
The experiment was carried out as for (d) above except that the test solutions used were 1:50 (vol/vol) of antibodies in growth medium. The antibodies used were antibodies to MMPs 1, 2, 3 and 9, obtained from Biogenesis Ltd., (Poole, U.K.). A control solution of 0.1% sodium azide and 0.14% rabbit serum in PBS diluted to 1:50 in growth medium was also used.

Series [3] concerns rat parietal sheath fibroblasts. The series can be described thus: Collagen lattice contraction, rat parietal sheath fibroblasts. The note with it: 40 μg/ml. The class given is cell-based. Here is the method: (§1) Collagen lattices (gels) were prepared as previously described in Example 1 and were seeded with 1×10^5 cells per lattice of:
(§2) The lattices were then exposed to growth medium containing Galardin at 40 μg/ml or hydroxamic acid at 100μM (control). The test solutions were made up as described in Example 3 above and approximately 3 ml dose of the appropriate test solutions were used.

Series [4] has as its system MMP activity (proteolytically active species) of human Tenon's capsule fibroblasts. The series can be described thus: Gelatin zymography of seeded collagen lattices. As to conditions: treatment of seeded lattices. Format: cell-based.
Method: Samples of conditioned medium and collagen lattices (1×10^5 cells/lattice) were collected on days 1, 3 and 7 post seeding. Lattices were washed in phosphate buffered saline (PBS; 3×3 ml) prior to homogenisation in 0.5% (vol/vol) Triton-X100 in PBS (Hunt et al. 1993]. Gelatin zymography [Heussen & Dowdle 1980] was then performed on these samples. Briefly, samples and prestained molecular weight standards were resolved on 10% tris glycine gels containing 0.1% gelatin (Novex, R&D Systems, Oxford, U.K.). Gels were then incubated for 30 minutes in renaturing buffer, 30 minutes in developing buffer followed by a further 18 hours in developing buffer at 37° C. (all Novex). Gels were than stained in 0.5% (wt/vol) commassie blue in 45% (vol/vol) water, 45% (vol/vol) methanol and 10% (vol/vol) glacial acetic acid, followed by destaining in 45% (vol/vol) water, 45% (vol/vol) water, 45% (vol/vol) methanol and 10% (vol/vol) glacial acetic acid. MMP activity appeared as clear bands on a blue background.
Series [5] has as its system Tenons capsule fibroblast. The series can be described thus: Actin cytoskeleton staining with FITC-phalloidin. Format: cell-based, human. As to conditions: 40 μg/ml. Here is the method: Monolayer cultures of fibroblasts and collagen lattices (gels) seeded with 1×10^5 cells per lattice were prepared (as described in Example 1).
In order to assess whether this difference was owing to the direct effect of the inhibitor or to differences in the degree of invasion into the matrix, cells were exposed in monolayer culture to the inhibitor and the cytoskeleton was-stained. See FIGS. 10A (control) and 10B (exposed to inhibitor). The arrows indicate the stress fibres on the cells in the monolayer culture.

In series [6] the test system is human ocular fibroblasts. The series can be described thus: Cytotoxicity: cell count and trypan blue dye exclusion. As to conditions: 40 and 4 μg/ml; 2×10^4 cells per well; vs control medium. Format: cell-based. Here is the method:
This experiment was carried out substantially according to the method of Example 2, except that cells were seeded at 2×10^4 cells per well, cultured without radioactive material and were exposed to control medium (DMEM/10% NCS) or Galardin at 40 μg/ml and 4 μg/ml concentration. […] Wells were harvested and cells counted on a haemocytometer, see FIG. 3E for the results, and the percentage of viable cells in each well was measured using the trypan blue dye exclusion test, see FIG. 3F for the results.

The test system of the next series is ocular fibroblasts. The series can be described thus: Fibroblast morphology within collagen lattices (phase contrast microscopy). The class given is cell-based, human. Here is the method: Collagen lattices seeded with ocular fibroblasts were prepared and exposed to MMP inhibitors, both synthetic chemicals and antibodies, as described in Example 3 above. Cellular morphology was monitored by phase contrast microscopy.

For series [7], the system named is human keratinocytes and human dermal fibroblasts. The series can be described thus: Contraction of artificial skin equivalent. The class given is cell-based. As to conditions: 40 μg/ml; 7 days; vs hydroxamic acid 100 μM. Here is the method: The effect of an MMP inhibitor on the contraction of an artificial skin equivalent was tested. […] This lattice was then exposed to growth medium containing Galardin at 40 μg/ml or hydroxamic acid at 100μM (control).

A further series concerns the target stromelysin (Homo sapiens, UniProt P08254). The series can be described thus: biochemical.
A further series deals with gelatinase. The series can be described thus: Inhibition constant with gelatinase. Format: biochemical.
The test system of the next series is human dermal fibroblasts. The series can be described thus: Collagen lattice contraction, human dermal fibroblasts. Format: cell-based. As to conditions: 40 μg/ml. Here is the method:
as §1, §2

Series [8] concerns rat endotendon fibroblasts. The series can be described thus: Collagen lattice contraction, rat endotendon fibroblasts. The class given is cell-based. The note with it: 40 μg/ml. Here is the method: as §1, §2
Setting [9] is: 1×10^5 cells per lattice, 7 days, vs hydroxamic acid 100 μM.

stromelysin, sequence (P08254 100-477): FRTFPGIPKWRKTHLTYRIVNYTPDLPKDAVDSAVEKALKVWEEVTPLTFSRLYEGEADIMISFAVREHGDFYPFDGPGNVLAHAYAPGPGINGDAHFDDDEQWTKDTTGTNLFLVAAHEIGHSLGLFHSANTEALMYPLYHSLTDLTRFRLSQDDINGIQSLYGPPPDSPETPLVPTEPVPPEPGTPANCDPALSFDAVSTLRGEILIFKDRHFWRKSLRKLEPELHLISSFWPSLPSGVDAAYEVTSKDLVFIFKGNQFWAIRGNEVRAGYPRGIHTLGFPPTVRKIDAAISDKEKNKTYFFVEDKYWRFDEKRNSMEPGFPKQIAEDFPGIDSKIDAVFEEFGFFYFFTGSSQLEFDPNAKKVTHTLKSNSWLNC

With `CC(C)C[C@H](CC(=O)O)C(=O)N[C@@H](Cc1c[nH]c2ccccc12)C(=O)N[C@@H](C)c1ccccc1` [GM1489], the “toxicity (3H-thymidine incorporation)” value in series [1] is on record as “no significant toxicity”.

Regarding `CNC(=O)[C@H](Cc1c[nH]c2ccccc12)NC(=O)[C@@H](CC(=O)NO)CC(C)C` [GM6001, N-[2(R)-2-(hydroxamidocarbonylmethyl)-4-methylpentanoyl]-L-tryptophan methylamide], the “toxicity (3H-thymidine incorporation)” value in [1] is “no significant toxicity”. Also, the “contraction of lattices already contracted for 5 days” value was “inhibited contraction” in the series on human ocular fibroblasts [2] (4 μg/ml from day 5 for 25 days, vs control solution) and “stronger inhibitory effect than the 4 μg/ml solution” in the series on human ocular fibroblasts [2] (40 μg/ml from day 5 for 25 days). Besides, in the series on human ocular fibroblasts [2] (4 μg/ml until day 14, then control solution), the “contraction after replacement of inhibitor by control solution (reversibility)” value is given as “significant increase in contraction from day 14 onwards”. Further, the “contraction of collagen gels (gel area)” value in the series with human ocular fibroblasts [2] (400, 40 and 4 μg/ml, 100,000 cells per gel, 2 days, vs buffer and normal growth medium) is given as “inhibited the contraction of the collagen gels”. The “dose dependence of inhibition of gel contraction” value in the series on human ocular fibroblasts [2] (400, 40 and 4 μg/ml, 2 days) was “dose dependent”. In addition, the “viability of cells in the collagen gels at end of test (phase contrast microscopy)” value with human ocular fibroblasts [2] (400, 40 and 4 μg/ml, 2 days) is “appeared to be viable”. The “contraction of gels (mean lattice area)” value is recorded as “much less than that of gels exposed to control solutions” in the series on human ocular fibroblasts [2] (100,000 cells per lattice) and “much less than that of gels exposed to the control solution” in the series with human ocular fibroblasts [2] (500,000 cells per lattice). For the same molecule, the “contraction of lattices (mean lattice area)” value with human ocular fibroblasts [2] (continual exposure to 4 μg/ml, 1×10^5 cells/lattice, up to 40 to 50 days) is listed as “very little contraction”; in [3] (setting [9]), “greatly reduced”; with human dermal fibroblasts (setting [9]) it was “greatly reduced”; in series [8] (setting [9]) it was “greatly reduced”. Moreover, the “cellular invasion into and migration through the surrounding matrix” value in series [3] (compared to controls) is “decreased cellular invasion into and migration through”; with human dermal fibroblasts (compared to controls) it was “decreased cellular invasion into and migration through”; in series [8] (compared to controls), “decreased cellular invasion into and migration through”. The “proteolytically active species in gelatin zymography” value in [4] is listed as “abolishment of the four proteolytically active species”. In addition, in series [5] (collagen lattice), the “actin stress fibres on cells populating collagen gels” value is listed as “do not appear to be present”. In series [5] (monolayer culture, compared to controls), the “actin cytoskeleton in monolayer culture” value was “did not appear to affect the actin cytoskeleton”. In addition, the “cell number per well (haemocytometer)” value in the series with human ocular fibroblasts [6] is recorded as “did not adversely affect”. For the same molecule, in the series with human ocular fibroblasts [6], the “cell viability (percentage of viable cells, trypan blue)” value is “did not adversely affect”. In addition, the “cell morphology in lattices” value with ocular fibroblasts (4 μg/ml, 7 days post seeding) was “Small cytoplasmic projections”. For the same molecule, the “invasion into the surrounding collagen matrix” value in the series on ocular fibroblasts (synthetic inhibitors as in Example 3, compared to controls) is recorded as “decreased invasion into the surrounding collagen matrix”. The “contraction of artificial skin equivalent (mean lattice area)” value in series [7] is listed as “less contraction than those exposed to the control solution”. The results for the pKi at stromelysin and on gelatinase were 7.70 and 9.40, respectively.
